Test [1] addresses T1, ATP-dependent Clp protease proteolytic subunit, mitochondrial (Homo sapiens, UniProt Q16740). Put plainly: Agonist activity at human ClpP using Ac-WLA-AMC as substrate assessed as induction of substrate degradation.
Test [2] addresses T1, ATP-dependent Clp protease proteolytic subunit, mitochondrial. Put plainly: Agonist activity at N-terminal SUMO tagged human ClpP transfected in Escherichia coli assessed as induction of alpha-casein degradation preincubated for 10 mins followed by alpha-casein addition and measured after 2 hrs by brilliant blue staining based SDS-PAGE analysis.
Test [3] relates to HCCLM3. Kind of test: cells. Conditions: Homo sapiens, HCCLM3, 72 h.
Description: Antiproliferative activity against human HCCLM3 cells assessed as inhibition of cell proliferation measured after 72 hrs by MTT assay
The subject of test [4] is HCCLM3. Put plainly: cells. Conditions: Homo sapiens, HCCLM3, 72 h, read-out: INH.
Description: Antiproliferative activity against human HCCLM3 cells assessed as inhibition of cell proliferation at 10 uM measured after 72 hrs by MTT assay relative to control
Test [5] relates to HCCLM3. Put plainly: Antitumor activity against human HCCLM3 cells xenografted in female Balb/c nude mouse assessed as tumor growth inhibition at 20 mg/kg, ip tumor inoculated for 5 days followed by compound administration every 2 days for 4 weeks relative to control. Conditions: HCCLM3, 672 h, read-out: TGI.

T1 sequence (Q16740 whole entry): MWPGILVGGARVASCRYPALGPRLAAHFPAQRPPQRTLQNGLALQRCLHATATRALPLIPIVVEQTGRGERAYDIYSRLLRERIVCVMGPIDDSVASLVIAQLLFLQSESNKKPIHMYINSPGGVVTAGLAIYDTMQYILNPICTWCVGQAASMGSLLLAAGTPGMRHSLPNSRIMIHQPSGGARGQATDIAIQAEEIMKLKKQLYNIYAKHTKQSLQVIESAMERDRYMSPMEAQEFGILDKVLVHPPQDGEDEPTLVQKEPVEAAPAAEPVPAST

In general, IC50 refers to the concentration at which inhibition is half-maximal. Read a high IC50 as a need for much substance. Regarding `O=C(c1ccc(F)cc1)N1CCC[C@H](c2nc(-c3ccc(F)cc3)no2)C1`, the EC50 in test [1] came to 1.2 µM; in test [2], 29.7 µM. This molecule displayed a 50% inhibitory concentration (IC50) in the test with HCCLM3 [3] of 66.4 µM.
As for `N#Cc1cccc(CN2CCC(c3nc(Cc4ccc(F)c(Br)c4)no3)CC2)c1`, in the test with HCCLM3 [4], the inhibition at 10 µM was 83.2%. The molecule further had a concentration for half-maximal inhibition (IC50) in the test on HCCLM3 [3] of 3.7 µM.
Turning to `N#Cc1cccc(CN2CCC(c3nc(Cc4cc(F)cc(F)c4)no3)CC2)c1`, the inhibition at 10 µM in the test with HCCLM3 [4] worked out at 46.4%.
Consider `N#Cc1cccc(CN2CCC(c3nc(Cc4ccc(Br)c(F)c4)no3)CC2)c1`, for which, in the test on HCCLM3 [4], the inhibition at 10 µM amounted to 74.4%. The IC50 in the test with HCCLM3 [3] stood at 6.4 µM.
For `N#Cc1cccc(CN2CCC(c3nc(Cc4ccc(Cl)cc4F)no3)CC2)c1`, the inhibition at 10 µM in the test on HCCLM3 [4] came to 55.9%. In the test with HCCLM3 [3], 9.3 µM corresponded to half-maximal inhibition (IC50).
Take `O=C(c1ccc(F)cc1)N1CCC[C@@H](c2nc(-c3ccc(F)cc3)no2)C1`: the inhibition at 10 µM in the test with HCCLM3 [4] was 17.8%.
Regarding `O=S(=O)(NCCc1nc(Cc2ccc(F)cc2)no1)c1ccc(F)cc1`, the inhibition at 10 µM with HCCLM3 [4] is 13.2%.
As to `O=C(Cc1ccc(F)cc1)N1CC(c2nc(Cc3ccc(F)cc3)no2)C1`, the inhibition at 10 µM with HCCLM3 [4] stood at 11.5%.
As for `N#Cc1cccc(CN2CCC(c3nc(Cc4cc(F)c(F)c(F)c4)no3)CC2)c1`, the inhibition at 10 µM with HCCLM3 [4] was determined as 80.9%. This molecule also displayed an IC50 with HCCLM3 [3] of 4.8 µM.
In the case of `N#Cc1cccc(CN2CCC(c3nc(Cc4cccc(F)c4)no3)CC2)c1`, the inhibition at 10 µM in the test with HCCLM3 [4] turned out to be 50.4%. Also, in the test on HCCLM3 [3], the IC50 was found to be 9.8 µM.
Take `N#Cc1cccc(CN2CCC(c3nc(-c4ccc(C(F)(F)F)cc4)no3)CC2)c1`: the inhibition at 10 µM in the test with HCCLM3 [4] is 19.5%.
Turning to `N#Cc1cccc(C(=O)N2CCC(c3nc(Cc4ccc(F)cc4)no3)CC2)c1`, in the test on HCCLM3 [4], the inhibition at 10 µM is 22.4%.
Turning to `N#Cc1cccc(CN2CCC(c3nc(Cc4cccc(C(F)(F)F)c4)no3)CC2)c1`, in the test on HCCLM3 [4], the inhibition at 10 µM worked out at 73.6%. For the same molecule, in the test with HCCLM3 [3], the midpoint of inhibition, the IC50, lay at 7.2 µM.
As to `Fc1ccc(Cc2noc(C3CCN(Cc4ccc(C(F)(F)F)cc4)CC3)n2)cc1`, in the test with HCCLM3 [4], the inhibition at 10 µM was 18.8%.
The same measure, in the same setting: the figure for `O=C(c1ccc(F)cc1)N1CC[C@H](c2nc(Cc3ccc(F)cc3)no2)C1` is 6%; for `O=C(c1ccc(F)cc1)N1CCC[C@H](c2nc(Cc3ccc(F)cc3)no2)C1` it is 9.3%.
As for `N#Cc1cccc(CN2CCC(c3nc(-c4cccc(C(F)(F)F)c4)no3)CC2)c1`, in the test with HCCLM3 [4], the inhibition at 10 µM was 30.3%.
For `N#Cc1cccc(CN2CCC(c3nc(Cc4ccc(F)cc4F)no3)CC2)c1`, the inhibition at 10 µM in the test with HCCLM3 [4] is 36.4%.
On to `N#Cc1cccc(CN2CCC(c3nc(Cc4ccc(Br)cc4F)no3)CC2)c1`, for which the inhibition at 10 µM in the test on HCCLM3 [4] turned out to be 23.7%.
On the same count and under the same terms, the figure for `Cc1ccccc1Cc1noc(C2CCN(Cc3cccc(C#N)c3)CC2)n1` is 12.3%.
In the case of `N#Cc1cccc(CN2CCC(c3nc(Cc4ccccc4)no3)CC2)c1`, the inhibition at 10 µM in the test on HCCLM3 [4] worked out at 64.5%. The molecule also came in with an IC50 in the test on HCCLM3 [3] of 7.7 µM.
`O=C(c1ccc(F)cc1)N1CCC(c2nc(Cc3ccc(F)cc3)no2)CC1`: the inhibition at 10 µM with HCCLM3 [4] was 22.1%.
`O=C(Cc1ccc(F)cc1)N1CC[C@H](c2nc(Cc3ccc(F)cc3)no2)C1`: in the test on HCCLM3 [4], the inhibition at 10 µM is 5.8%.
Consider `N#Cc1cccc(CN2CCC(c3nc(Cc4ccc(F)cc4)no3)CC2)c1`, for which the inhibition at 10 µM in the test on HCCLM3 [4] stood at 77.5%. In the test on HCCLM3 [3], this molecule displayed a half-maximal inhibitory concentration (IC50) of 5.9 µM.
Turning to `O=C(NCCc1nc(Cc2ccc(F)cc2)no1)c1ccc(C(F)(F)F)cc1`, the inhibition at 10 µM in the test on HCCLM3 [4] is 15.5%.
On the same count and under the same terms, the figure for `Fc1ccc(CN2CCC[C@@H](c3nc(-c4ccc(F)cc4)no3)C2)cc1` is 11%; for `O=C(c1ccc(F)cc1)N1CC(c2nc(Cc3ccc(F)cc3)no2)C1` it is 23%; for `O=C(Cc1ccc(F)cc1)N1CCC[C@@H](c2nc(-c3ccc(F)cc3)no2)C1` it is 18.3%.
As to `N#Cc1cccc(CN2CCC(c3nc(Cc4ccc(Br)cc4)no3)CC2)c1`, in the test with HCCLM3 [4], the inhibition at 10 µM was 70%. This molecule came in with an IC50 with HCCLM3 [3] of 6.7 µM.
Regarding `Fc1ccc(Cc2noc([C@H]3CCCN3Cc3ccc(F)cc3)n2)cc1`, the inhibition at 10 µM with HCCLM3 [4] is 32.5%.
The same measure, in the same setting: the result for `Fc1ccc(Cc2noc(C3CCN(Cc4ccccn4)CC3)n2)cc1Cl` reads 11.1%.
Take `N#Cc1cccc(CN2CCC(c3nc(Cc4ccc(Cl)c(F)c4)no3)CC2)c1`: the inhibition at 10 µM in the test on HCCLM3 [4] worked out at 71.1%. In the test with HCCLM3 [3], this molecule yielded an IC50 of 7.6 µM.
For the molecule `Fc1ccc(Cc2noc([C@H]3CCCN3Cc3ccc(C(F)(F)F)cc3)n2)cc1`, in the test on HCCLM3 [4], the inhibition at 10 µM was determined as 13.3%.
Regarding `Fc1ccc(Cc2noc(C3CCN(Cc4ccc(F)cc4)CC3)n2)cc1`, the inhibition at 10 µM in the test with HCCLM3 [4] was determined as 30%.
On the same count and under the same terms, the result for `N#Cc1cccc(CN2CCC(c3nc(Cc4cc(F)ccc4F)no3)CC2)c1` reads 12.2%; that for `N#Cc1cccc(CN2CCC(c3nc(Cc4ccc(F)cc4Cl)no3)CC2)c1`, 10.4%.
As for `N#Cc1cccc(CC(=O)N2CCC(c3nc(Cc4ccc(F)cc4)no3)CC2)c1`, the inhibition at 10 µM with HCCLM3 [4] is 31.5%.
The same measure, in the same setting: the figure for `Fc1ccc(Cc2noc([C@H]3CCCN(Cc4ccc(F)cc4)C3)n2)cc1` is 22.5%.
As for `N#Cc1cccc(CN2CCC(c3nc(Cc4ccccc4F)no3)CC2)c1`, in the test with HCCLM3 [4], the inhibition at 10 µM stood at 68.9%. This molecule displayed a 50% inhibitory concentration (IC50) with HCCLM3 [3] of 7.9 µM.
The matching figures for `N#Cc1cccc(CN2CCC(c3nc(Cc4ccc(Cl)cc4)no3)CC2)c1`: 61.5% and 8.9 µM.
Consider `O=C(Cc1ccc(F)cc1)N1CCC[C@H](c2nc(Cc3ccc(F)cc3)no2)C1`, for which, in the test with HCCLM3 [4], the inhibition at 10 µM came to 5.3%.
As for `N#Cc1cccc(CN2CCC(c3nc(Cc4ccc(F)c(F)c4)no3)CC2)c1`, in the test on HCCLM3 [4], the inhibition at 10 µM was 88.3%. The molecule also showed an IC50 with HCCLM3 [3] of 3.7 µM.
Take `N#Cc1cccc(CN2CCC(c3nc(Cc4ccc(C(F)(F)F)cc4)no3)CC2)c1`: the inhibition at 10 µM in the test with HCCLM3 [4] was found to be 56.4%. This molecule also gave a concentration for half-maximal inhibition (IC50) in the test with HCCLM3 [3] of 9.2 µM.
For `N#Cc1cccc(CN2CCC(c3nc(Cc4cccc(F)c4F)no3)CC2)c1`, in the test with HCCLM3 [4], the inhibition at 10 µM was found to be 11.7%.
With `N#Cc1cccc(C(=O)NCCc2nc(Cc3ccc(F)cc3)no2)c1`, the inhibition at 10 µM in the test on HCCLM3 [4] came to 16.1%.
For `N#Cc1cccc(CN2CC(c3nc(Cc4ccc(F)cc4)no3)C2)c1`, the inhibition at 10 µM with HCCLM3 [4] was determined as 5.9%.
For the molecule `O=C(NCCc1nc(Cc2ccc(F)cc2)no1)c1ccc(F)cc1`, the inhibition at 10 µM in the test with HCCLM3 [4] turned out to be 24.3%.
Turning to `N#Cc1cccc(CN2CCC[C@@H]2c2nc(Cc3ccc(F)cc3)no2)c1`, the inhibition at 10 µM in the test on HCCLM3 [4] amounted to 38.8%.
Regarding `Fc1ccc(Cc2noc(C3CCN(Cc4cccnc4)CC3)n2)cc1Cl`, the inhibition at 10 µM in the test on HCCLM3 [4] came to 16.7%.
Turning to `N#Cc1cccc(CN2CCC(c3nc(Cc4c(F)c(F)c(F)c(F)c4F)no3)CC2)c1`, the inhibition at 10 µM in the test with HCCLM3 [4] was 12.8%.
In the case of `Cc1ccc(Cc2noc(C3CCN(Cc4cccc(C#N)c4)CC3)n2)cc1`, in the test with HCCLM3 [4], the inhibition at 10 µM amounted to 20.6%.
Still for that read-out and setting: the figure for `N#Cc1cccc(CN2CCC(c3nc(Cc4ccc(F)cc4Br)no3)CC2)c1` is 12.7%.
As to `CNC(=O)c1cc(Oc2ccc(NC(=O)Nc3ccc(Cl)c(C(F)(F)F)c3)cc2)ccn1` [SORAFENIB], the inhibition in vivo at 20 mg/kg in the test on HCCLM3 [5] amounted to 80.2%. The molecule also gave an IC50 in the test with HCCLM3 [3] of 6.3 µM.
